pIC50: −log10 of the molar value. Marks after values point to notes of the source that are not given here.
Columns and labels:
[1] = system: transplant tumor of human granulocytic leukemia K562; experiment: Test Example 2: therapeutic effect on naked mice with transplant tumor of human granulocytic leukemia K562; settings: for Body weight before dissection d0 / TV x ± SD d0: d0 = grouping and first administration; for Body weight before dissection dn / TV x ± SD dn: dn = day 21; for CR: complete extinction (complete resolution) of tumor: end of experiment (Day 21), mice with CR/group; for mice in which the tumor was extinct: 75 mg/kg oral gavage once per day
Protocol: Animals were allowed to acclimatize the environment for one week, and then the animals were inoculated subcutaneously human leukemia K562 cells. When the tumors have grown to a volume of 100-300 mm^3, the animals were randomly grouped (d0). The naked mice were administered by oral gavage. […] The animals were administered once per day for 21 days. Measured the volume of the tumors 2-3 times per week and weighed the animals followed by recording the data. The formula for calculating the volume of tumor (V): V=½×a×b^2, wherein a represents the length and b represents the width.
The mice were continuously administered by oral gavage once per day for 21 days.

[2] = system: transplant tumor of human granulocytic leukemia K562; experiment: Test Example 3: therapeutic effect of HH-GV-678 and Gleevec on naked mice with transplant tumor of human granulocytic leukemia K562; settings: for Body weight before dissection d0 / TV x ± SD d0: d0 = grouping and first administration; for Body weight before dissection dn / TV x ± SD dn: dn = day 21; for CR: complete resolution: end of experiment, mice with CR/group
Description: Animals were allowed to acclimatize the environment for one week, and then the animals were inoculated subcutaneously human leukemia K562 cells. When the tumors have grown to a volume of 100-300 mm^3, the animals were randomly grouped (d0). […] Measured the volume of the tumors 2-3 times per week and weighed the animals followed by recording the data. The formula for calculating the volume of tumor (V): V =1/2×a×b^2, wherein a represents the length and b represents the width.

[3] = system: human acute promyelocytic leukemia HL-60 cell; experiment: MTT assay, inhibition of proliferation of HL-60 cells cultured in vitro (Bcr-Abl negative control model); format: cell-based; settings: drug 48 h
Protocol: HL-60: human acute promyelocytic leukemia Cell. The expression of Bcr-Abl tyrosine kinase is negative.
(§1) Cells were grown in a medium containing 10% fetal bovine serum and were kept in the logarithmic growth phase.
(§2) The cells were pre-incubated in an incubator at 37° C. in 5% CO2 for 24 hours. The drug with 6 to 8 different concentrations was added and treated continuously for 48 h.
(§3) After the treatment of the drug, take photos by a phase contrast microscope. Then MTT treatment solution was added into each well and after 4 hours lysed the cells by DMSO. The OD values for each well were determined by using Plarstar ELIASA.
Concentration setting: 5-8 concentrations within the range of 0.001-10 μM were set, and each concentration is set in triplicate.

[4] = system: human chronic myelogenous leukemia K562 cell (expressing P210 Bcr-Abl tyrosine kinase); experiment: MTT assay, inhibition of proliferation of K562 cells cultured in vitro
Protocol: as §1, §2, §3

[5] = 75 mg/kg oral gavage once per day 21 days
[6] = 150 mg/kg oral gavage once per day 21 days
[7] = 150 mg/kg each time, oral gavage twice per day 21 days
[8] = 37.5 mg/kg oral gavage once per day 21 days

Cc1ccc(NC(=O)c2ccc(CN3CCN(C)CC3)cc2)cc1Nc1nccc(-c2cccnc2)n1 [Gleevec, Imatinib, reference compound]
RTV x ± SD [1, 5]: 8.56 ± 7.09
T/C [1, 5]: 121.0%
Body weight before dissection d0 [1, 5]: 19.3 gram
TV x ± SD d0 [1, 5]: 153 ± 68 mm^3
Body weight before dissection dn [1, 5]: 15.6 gram
TV x ± SD dn [1, 5]: 971 ± 154 mm^3
CR: complete extinction (complete resolution) of tumor [1, 5]: 0/6
mice died ([1]; 150 mg/kg group, Day 18, death considered to be related to the tumor): 1/6
RTV x ± SD [1, 6]: 8.30 ± 5.65
T/C [1, 6]: 117.7%
Body weight before dissection d0 [1, 6]: 20.3 gram
TV x ± SD d0 [1, 6]: 127 ± 45 mm^3
Body weight before dissection dn [1, 6]: 16.3 gram
TV x ± SD dn [1, 6]: 824 ± 170 mm^3
CR: complete extinction (complete resolution) of tumor [1, 6]: 0/6
effect on the growth of the tumor ([1]; present protocol: 75 and 150 mg/kg oral gavage once per day 21 days): did not have significant effect on the growth of the tumor
T/C [2, 7]: 34.2* %
Body weight before dissection d0 [2, 7]: 24.1 gram
TV x ± SD d0 [2, 7]: 144 ± 33 mm^3
Body weight before dissection dn [2, 7]: 20.6 gram
TV x ± SD dn [2, 7]: 501 ± 347 mm^3
CR: complete resolution [2, 7]: 2/8
complete resolution (CR) of tumors, mice of the group ([2]; 150 mg/kg each time, oral gavage twice per day, Day 12): 1/8

CS(=O)(=O)O.Cc1ncc(NC(=O)c2ccc(CN3CCN(C)CC3)c(Cl)c2)cc1Nc1nccc(-c2cccnc2)n1 [HH-GV-E, 4-((4-methylpiperazin-1-yl)methyl)-N-[6-methyl-5-[[4-(pyrid-3-yl)pyrimidin-2-yl]amino]pyrid-3-yl]-3-chloro-benzamide methanesulfonic acid salt]
pIC50 [3]: < 5.00
RTV x ± SD [1, 5]: 9.60 ± 6.51
T/C [1, 5]: 103.6%
Body weight before dissection d0 [1, 5]: 18.5 gram
TV x ± SD d0 [1, 5]: 130 ± 58 mm^3
Body weight before dissection dn [1, 5]: 14.2 gram
TV x ± SD dn [1, 5]: 954 ± 242 mm^3
CR: complete extinction (complete resolution) of tumor [1, 5]: 0/6
RTV x ± SD [1, 6]: 3.24 ± 1.65
T/C [1, 6]: 47.4* %
effect on the growth of K562 tumor [1, 6]: significant inhibition effect on the growth of K562 tumor
Body weight before dissection d0 [1, 6]: 18.8 gram
TV x ± SD d0 [1, 6]: 149 ± 31 mm^3
Body weight before dissection dn [1, 6]: 15.2 gram
TV x ± SD dn [1, 6]: 455 ± 214 mm^3
CR: complete extinction (complete resolution) of tumor [1, 6]: 0/6
selectivity for the target ([4]; HL-60 versus K562 cells): > 125 folds
pIC50 ([4]; Homo sapiens, K562, 48 h, read-out: IC50, inhibition of proliferation of leukemia cells): 7.10

CS(=O)(=O)O.Cc1ncc(NC(=O)c2ccc(CN3CCN(C)CC3)c(C(F)(F)F)c2)cc1Nc1nccc(-c2cccnc2)n1 [HH-GV-F, 4-((4-methylpiperazin-1-yl)methyl)-N-[6-methyl-5-[[4-(pyrid-3-yl)pyrimidin-2-yl]amino]pyrid-3-yl]-3-(trifluoromethyl)-benzamide methanesulfonic acid salt]
pIC50 [3]: ≤ 5.00
RTV x ± SD [1, 8]: 2.85 ± 3.18
T/C [1, 8]: 40.4* %
effect on the growth of K562 tumor [1, 8]: significantly inhibited the growth of K562 tumor, but did not cause the tumor extinct
Body weight before dissection d0 [1, 8]: 19.3 gram
TV x ± SD d0 [1, 8]: 119 ± 51 mm^3
Body weight before dissection dn [1, 8]: 18.8 gram
TV x ± SD dn [1, 8]: 294 ± 255 mm^3
CR: complete extinction (complete resolution) of tumor [1, 8]: 0/6
RTV x ± SD [1, 5]: 1.38 ± 3.08
T/C [1, 5]: 19.6* %
Body weight before dissection d0 [1, 5]: 19.2 gram
TV x ± SD d0 [1, 5]: 127 ± 46 mm^3
Body weight before dissection dn [1, 5]: 19.3 gram
TV x ± SD dn [1, 5]: 95 ± 199 mm^3
CR: complete extinction (complete resolution) of tumor [1, 5]: 4/6
mice in which the tumor was extinct ([1]; Day 9): 1/6
mice in which the tumor was extinct ([1]; Day 12): 4/6
mice in which the tumor was extinct ([1]; Day 15): 5/6
RTV x ± SD [2, 5]: 0 ± 0
T/C [2, 5]: 0* %
Body weight before dissection d0 [2, 5]: 24.0 gram
TV x ± SD d0 [2, 5]: 168 ± 65 mm^3
Body weight before dissection dn [2, 5]: 24.7 gram
TV x ± SD dn [2, 5]: 0 ± 0 mm^3
CR: complete resolution [2, 5]: 7/8
complete resolution (CR) of tumors, mice of the group ([2]; 75 mg/kg oral gavage once per day, Day 6): 3/8
complete resolution (CR) of tumors, mice of the group ([2]; 75 mg/kg oral gavage once per day, Day 9): 7/8
complete resolution (CR) of tumors, mice of the group ([2]; 75 mg/kg oral gavage once per day, Day 12): 8/8
RTV x ± SD [2, 6]: 0 ± 0
T/C [2, 6]: 0* %
Body weight before dissection d0 [2, 6]: 24.3 gram
TV x ± SD d0 [2, 6]: 152 ± 37 mm^3
Body weight before dissection dn [2, 6]: 23.9 gram
TV x ± SD dn [2, 6]: 0 ± 0 mm^3
CR: complete resolution [2, 6]: 8/8
complete resolution (CR) of tumors, mice of the group ([2]; 150 mg/kg oral gavage once per day, Day 6): 6/8
complete resolution (CR) of tumors, mice of the group ([2]; 150 mg/kg oral gavage once per day, Day 9): 8/8
toxicity ([2]; mouse, in vivo): relatively lower

Source: US8183242B2, “Aminopyrimidine compounds and their salts, process for preparation and pharmaceutical use thereof” (priority 2004, dated 2012)
